Patent US20170334899A1, “AMINO-SUBSTITUTED ISOTHIAZOLES” (Bayer Pharma Aktiengesellschaft, priority 2014, published 2017)

How the values were obtained:
HeLa = assay: Proliferation assay (crystal violet), HeLa; type: cell-based; conditions: Homo sapiens, HeLa, 96 h, HeLa cells; 4 days incubation; crystal violet staining; read-out: IC50 inhibition of proliferation, HeLa
Outline: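 Crystal violet proliferation readout, 4-day compound incubation, 0.001–10 μM, final DMSO 0.5%. Zero-point plate stained at time of dosing set as 0%, untreated control as 100%; IC50 via 4-parameter fit.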

[1] = system: human cervical tumor cell line HeLa (ATCC CCL-2); assay: SAC-Formation - Nocodazole-Induced Assay; type: cell-based; conditions: Homo sapiens, HeLa, 24 h, HeLa cells, nocodazole 0.1 μg/ml together with test compound, decrease of mitotic cells (phospho-histone H3 Ser10)
Outline: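 Loss of phospho-histone H3 Ser10-positive cells, counted against Hoechst-stained nuclei by high-content imaging, marked mitotic breakthrough. Compounds (0.005–20 μM, 0.5% DMSO) were co-dosed with 0.1 μg/ml nocodazole onto HeLa cells for 24 h at 37 °C. Curves were fitted with a four-parameter Hill equation.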

SMILES	IC50 (HeLa) [nM]	IC50 [1] [nM]
Cc1nsc(Nc2ccc(C#N)cn2)c1C(=O)Nc1cccc(N)c1 [Example 180, N-(3-aminophenyl)-5-[(5-cyanopyridin-2-yl)amino]-3-methyl-1,2-thiazole-4-carboxamide]	> 10000	1300
Cc1nsc(Nc2cncc(C(F)(F)F)n2)c1C(=O)Nc1ccc(OC2CCN(C)CC2)nc1 [Example 219, 3-methyl-N-{6-[(1-methylpiperidin-4-yl)oxy]pyridin-3-yl}-5-{[6-(trifluoromethyl)pyrazin-2-yl]amino}-1,2-thiazole-4-carboxamide]	> 10000	910
Cc1nsc(Nc2cc(C#N)ccn2)c1C(=O)Nc1cccc(C(=O)NC2CC2)c1 [Example 175, 5-[(4-cyanopyridin-2-yl)amino]-N-[3-(cyclopropylcarbamoyl)phenyl]-3-methyl-1,2-thiazole-4-carboxamide]	> 10000	2200
Cc1nsc(Nc2cnc3ccccc3n2)c1C(=O)Nc1ccc(NC2CCCN(C(=O)OC(C)(C)C)C2)nc1 (stereo not shown) [Example 241, tert-butyl 3-{[5-({[3-methyl-5-(quinoxalin-2-ylamino)-1,2-thiazol-4-yl]carbonyl}amino)pyridin-2-yl]amino}piperidine-1-carboxylate]	9300	1400
Cc1nsc(Nc2cnccn2)c1C(=O)Nc1ccc(C(=O)OC(C)(C)C)cc1 [Example 184, tert-butyl 4-({[3-methyl-5-(pyrazin-2-ylamino)-1,2-thiazol-4-yl]carbonyl}amino)benzoate]	3800	88
Cc1nsc(Nc2cnc3ccccc3n2)c1C(=O)Nc1ccc(Oc2ccc(SC(F)(F)F)cc2)nc1 [Example 233, 3-methyl-5-(quinoxalin-2-ylamino)-N-(6-{4-[(trifluoromethyl)sulfanyl]phenoxy}pyridin-3-yl)-1,2-thiazole-4-carboxamide]	> 10000	4700
Cc1nsc(Nc2ccc(C#N)cn2)c1C(=O)Nc1cccc(NC(=O)OC(C)(C)C)c1 [Example 179, tert-butyl {3-[({5-[(5-cyanopyridin-2-yl)amino]-3-methyl-1,2-thiazol-4-yl}carbonyl)amino]phenyl}carbamate]	3800	320
Cc1nsc(Nc2cncc(C(F)(F)F)n2)c1C(=O)Nc1ccc(OCCN)nc1 [Example 196, N-[6-(2-aminoethoxy)pyridin-3-yl]-3-methyl-5-{[6-(trifluoromethyl)pyrazin-2-yl]amino}-1,2-thiazole-4-carboxamide]	> 10000	1300
Cc1nsc(Nc2cncc(C(F)(F)F)n2)c1C(=O)Nc1ccc(F)c(C(N)=O)c1 [Example 204, N-(3-carbamoyl-4-fluorophenyl)-3-methyl-5-{[6-(trifluoromethyl)pyrazin-2-yl]amino}-1,2-thiazole-4-carboxamide]	> 10000	490
Cc1nsc(Nc2cncc(C(F)(F)F)n2)c1C(=O)Nc1ccc(OC2CCNCC2)nc1 [Example 13, 3-Methyl-N-[6-(piperidin-4-yloxy)pyridin-3-yl]-5-{[6-(trifluoromethyl)pyrazin-2-yl]-amino}-1,2-thiazole-4-carboxamide]	10000	4600
Cc1nsc(Nc2cnc3ccccc3n2)c1C(=O)Nc1ccc(Nc2ccc(F)c(F)c2)nc1 [Example 245, N-{6-[(3,4-difluorophenyl)amino]pyridin-3-yl}-3-methyl-5-(quinoxalin-2-ylamino)-1,2-thiazole-4-carboxamide]	9900	1800
CC(=O)Nc1cc(NC(=O)c2c(C)nsc2Nc2cnc(C(F)(F)F)cn2)ccc1F [Example 206, N-(3-acetamido-4-fluorophenyl)-3-methyl-5-{[5-(trifluoromethyl)pyrazin-2-yl]amino}-1,2-thiazole-4-carboxamide]	5100	110

The next compounds have a lower IC50 (HeLa) than those just listed; values first:

IC50 (HeLa) [nM]	IC50 [1] [nM]	SMILES
690	41	Cc1nsc(Nc2cncc(C(F)(F)F)n2)c1C(=O)Nc1ccc(OC2CCN(CC(F)(F)F)CC2)nc1 [Example 16, 3-Methyl-N-(6-{[1-(2,2,2-trifluoroethyl)piperidin-4-yl]oxy}pyridin-3-yl)-5-{[6-(trifluoromethyl)pyrazin-2-yl]amino}-1,2-thiazole-4-carboxamide]
1100	510	Cc1nsc(Nc2cc(C#N)ccn2)c1C(=O)Nc1cccc(C(=O)OC(C)(C)C)c1 [Example 239, tert-butyl 3-[({5-[(4-cyanopyridin-2-yl)amino]-3-methyl-1,2-thiazol-4-yl}carbonyl)amino]benzoate]
2000	58	Cc1nsc(Nc2cnc(C(F)(F)F)cn2)c1C(=O)Nc1ccc(OCC2CCN(C(=O)OC(C)(C)C)CC2)nc1 [Example 227, tert-butyl 4-{[(5-{[(3-methyl-5-{[5-(trifluoromethyl)pyrazin-2-yl]amino}-1,2-thiazol-4-yl)carbonyl]amino}pyridin-2-yl)oxy]methyl}piperidine-1-carboxylate]
420	75	Cc1nsc(Nc2cncc(C(F)(F)F)n2)c1C(=O)Nc1ccc(OCCCNC(=O)OC(C)(C)C)nc1 [Example 190, tert-butyl {3-[(5-{[(3-methyl-5-{[6-(trifluoromethyl)pyrazin-2-yl]amino}-1,2-thiazoL-4-yl)carbonyl]amino}pyridin-2-yl)oxy]propyl}carbamate]
2500	2700	Cc1nsc(Nc2cnc(C(F)(F)F)cn2)c1C(=O)Nc1ccc(C(=O)NCCN2CCCC(F)C2)cc1 (stereo not shown) [Example 213, N-(4-{[2-(3-fluoropiperidin-1-yl)ethyl]carbamoyl}phenyl)-3-methyl-5-{[5-(trifluoromethyl)pyrazin-2-yl]amino}-1,2-thiazole-4-carboxamide]
980	260	Cc1nsc(Nc2cnc3ccccc3n2)c1C(=O)Nc1ccc(C(=O)OC(C)(C)C)cc1 [Example 181, tert-butyl 4-({[3-methyl-5-(quinoxalin-2-ylamino)-1,2-thiazol-4-yl]carbonyl}amino)benzoate]
140	210	Cc1nsc(Nc2cnc(C(F)(F)F)cn2)c1C(=O)Nc1ccc(OCCNC(=O)OC(C)(C)C)c(F)c1 [Example 215, tert-butyl [2-(2-fluoro-4-{[(3-methyl-5-{[5-(trifluoromethyl)pyrazin-2-yl]amino}-1,2-thiazol-4-yl)carbonyl]amino}phenoxy)ethyl]carbamate]
580	89	Cc1nsc(Nc2cc(C#N)ccn2)c1C(=O)Nc1ccc(Oc2cccc(C(F)(F)F)c2)nc1 [Example 230, 5-[(4-cyanopyridin-2-yl)amino]-3-methyl-N-{6-[3-(trifluoromethyl)phenoxy]pyridin-3-yl}-1,2-thiazole-4-carboxamide]
320	110	Cc1nsc(Nc2cncc(C(F)(F)F)n2)c1C(=O)Nc1ccc(OC2CCN(CC(F)F)CC2)c(F)c1 [Example 224, N-(4-{[1-(2,2-difluoroethyl)piperidin-4-yl]oxy}-3-fluorophenyl)-3-methyl-5-{[6-(trifluoromethyl)pyrazin-2-yl]amino}-1,2-thiazole-4-carboxamide]
2400	210	CC(=O)N1CCC(Oc2ccc(NC(=O)c3c(C)nsc3Nc3cncc(C(F)(F)F)n3)cn2)CC1 [Example 17, N-{6-[(1-Acetylpiperidin-4-yl)oxy]pyridin-3-yl}-3-methyl-5-{[6-(trifluoromethyl)-pyrazin-2-yl]amino}-1,2-thiazole-4-carboxamide]
1200	37	Cc1nsc(Nc2cnc(C(F)(F)F)cn2)c1C(=O)Nc1ccc(OCCNC(=O)OC(C)(C)C)nc1 [Example 192, tert-butyl {2-[(5-{[(3-methyl-5-{[5-(trifluoromethyl)pyrazin-2-yl]amino}-1,2-thiazol-4-yl)carbonyl]amino}pyridin-2-yl)oxy]ethyl}carbamate]
